This note sets out measurements from ChEMBL document CHEMBL5512619, “Anticancer mechanism of coumarin-based derivatives” (Eur J Med Chem, 2024).

Values after ≈ are worked out from the molar mass of the structure shown.

One data set deals with CCRF-CEM. The data set is described as follows: Antiproliferative activity against human CCRF-CEM cells assessed as reduction in cell viability measured after 24 hrs by MTT assay relative to control. It is filed as functional. Particulars: pooled result: one value given for 6 cell lines, strains, targets or settings.
The next data set deals with Carbonic anhydrase 2 (Homo sapiens, UniProt P00918). Briefly: Binding affinity to human CA2 assessed as inhibition constant incubated for 6 hrs by phenol red dye based stopped flow CO2 hydration assay.
Another data set has as its target Carbonic anhydrase 1 (Homo sapiens, UniProt P00915). The data set is described as follows: Binding affinity to human CA1 assessed as inhibition constant incubated for 6 hrs by phenol red dye based stopped flow CO2 hydration assay.
For another data set, the system named is A-427. Briefly: Cytotoxicity against human A-427 cells assessed as inhibition of cell growth. The format is functional, cell-based.
For a further data set, the system named is LCLC-103H cell line. The data set is described as follows: Cytotoxicity against human LCLC-103H cell line assessed as inhibition of cell growth. The format is functional, cell-based.
Another data set has as its system RT-4. The data set is described as follows: Cytotoxicity against human RT-4 cells assessed as inhibition of cell growth. It is filed as functional, cell-based.
The subject of data set [1] is HCT-116. The data set is described as follows: Antiproliferative activity against human HCT-116 cells measured after 72 hrs in presence of paclitaxel by SRB method. Particulars: HCT-116, 72 h. It is filed as functional, cell-based.
Data set [2] concerns MCF7. The data set is described as follows: Antiproliferative activity against human MCF7 cells measured after 72 hrs by SRB method. The format is functional, cell-based. Particulars: MCF7, 72 h.
Data set [3] has as its system HCT-116. The data set is described as follows: cells. Particulars: Homo sapiens, HCT-116, 72 h.
Description: Antiproliferative activity against human HCT-116 cells measured after 72 hrs by SRB method
Data set [4] concerns HeLa. The data set is described as follows: Antiproliferative activity against human HeLa cells measured after 72 hrs by SRB method. The format is functional, cell-based.
The test system of data set [5] is HepG2. The data set is described as follows: Antiproliferative activity against human HepG2 cells measured after 72 hrs by SRB method. Conditions: HepG2, 72 h. It is filed as functional, cell-based.
Data set [6] has as its system Caco-2. Briefly: Antiproliferative activity against human Caco-2 cells measured after 72 hrs in presence of paclitaxel by SRB method. The format is functional, cell-based. Conditions: Caco-2, 72 h.
The subject of data set [7] is HeLa. Briefly: Antiproliferative activity against human HeLa cells incubated for 24 hrs by MTT assay. The format is functional, cell-based.
Data set [8] is described as follows: Cytotoxicity against mouse LB3 cells by MTT assay. The format is functional, cell-based.
The subject of the next data set is EL4. Briefly: Cytotoxicity against mouse EL4 cells by MTT assay. It is filed as functional, cell-based.
The next data set deals with T-cell. Briefly: Cytotoxicity against mouse T-lymphocyte cells by MTT assay. The format is functional, cell-based.
A further data set has as its target Tubulin. The data set is described as follows: Inhibition of tubulin polymerization (unknown origin) by spectrophotometric method. It is filed as protein-complex assay, Homo sapiens.
The test system of data set [9] is MDA-MB-231. The data set is described as follows: Cytotoxicity against human MDA-MB-231 cells by MTT assay. It is filed as functional, cell-based.
In data set [10] the test system is MCF7. The data set is described as follows: Cytotoxicity against human MCF7 cells by MTT assay. It is filed as functional, cell-based.
For data set [11], the system named is HeLa. The data set is described as follows: Antiproliferative activity against human HeLa cells. It is filed as functional, cell-based.
For another data set, the system named is A549. The data set is described as follows: Cytotoxicity against human A549 cells assessed as inhibition of cell growth by MTT assay. It is filed as functional, cell-based.
The nature of data set [12]: Cytotoxicity against human BEAS-2B cells assessed as inhibition of cell growth by MTT assay. It is filed as toxicity, cell-based.
Data set [13] has as its system MCF7. Briefly: Cytotoxicity against human MCF7 cells assessed as inhibition of cell growth by MTT assay. It is filed as functional, cell-based.
For data set [14], the target named is Bromodomain-containing protein 4 (Homo sapiens, UniProt O60885). The data set is described as follows: Inhibition of BRD4 (unknown origin).
The test system of data set [15] is HepG2. The data set is described as follows: Cytotoxicity against human HepG2 cells incubated for 2 days by Neutral Red staining based assay. Particulars: HepG2, 48 h. The format is functional, cell-based.
For data set [16], the system named is HepG2. Briefly: Induction of apoptosis in human HepG2 cells assessed as necrotic cells at 1 time IC50 incubated for 24 hrs by annexin V-FITC and PI staining based flow cytometry analysis relative to control. The format is functional.
The subject of data set [17] is HepG2. The data set is described as follows: Induction of apoptosis in human HepG2 cells at 2 times IC50 incubated for 24 hrs by annexin V-FITC and PI staining based flow cytometry analysis relative to control. The format is functional.
A short description of data set [18]: Cytotoxicity against African green monkey Vero cells incubated for 2 days by Neutral Red staining based assay. The format is toxicity, cell-based, Chlorocebus sabaeus.
In data set [19] the test system is HCT-116. The data set is described as follows: Cytotoxicity against human HCT-116 cells incubated for 2 days by Neutral Red staining based assay. The format is functional, cell-based. Conditions: HCT-116, 48 h.
Another data set relates to SK-LU-1. The data set is described as follows: Cytotoxicity against human SK-LU-1 cells incubated for 2 days by Neutral Red staining based assay. Conditions: SK-LU-1, 48 h. The format is functional, cell-based.
Data set [20] relates to HepG2. The data set is described as follows: Induction of apoptosis in human HepG2 cells at 1 time IC50 incubated for 24 hrs by annexin V-FITC and PI staining based flow cytometry analysis relative to control. The format is functional.
Data set [21] relates to HepG2. Briefly: Induction of apoptosis in human HepG2 cells assessed as necrotic cells at 2 times IC50 incubated for 12 hrs by annexin V-FITC and PI staining based flow cytometry analysis relative to control. The format is functional.
Data set [22] has as its system HepG2. Briefly: Induction of apoptosis in human HepG2 cells assessed as necrotic cells at 2 times IC50 incubated for 24 hrs by annexin V-FITC and PI staining based flow cytometry analysis relative to control. The format is functional.
The subject of data set [23] is HepG2. The data set is described as follows: Induction of apoptosis in human HepG2 cells assessed as necrotic cells at 1 time IC50 incubated for 12 hrs by annexin V-FITC and PI staining based flow cytometry analysis relative to control. The format is functional.
The subject of data set [24] is MDA-MB-231. Briefly: Inhibition of cell invasion in human MDA-MB-231 cells at 100 uM measured after 24 hrs by crystal violet staining based microscopy analysis relative to control. The format is functional.
Data set [25] concerns Caco-2. Briefly: Antiproliferative activity against human Caco-2 cells measured after 72 hrs by SRB method. Conditions: Caco-2, 72 h.
Data set [26] in a line: Induction of apoptosis in human MOG-G-CCM cells relative to control. It is filed as functional.
Data set [27] can be described thus: Induction of autophagy in human MOG-G-CCM cells relative to control. It is filed as functional.
For a further data set, the system named is KB. Briefly: Antiproliferative activity against human KB cells measured after 48 hrs by MTT assay. It is filed as functional, cell-based.
The subject of a further data set is T98G. Briefly: Induction of apoptosis in human T98G cells relative to control. The format is functional.

Carbonic anhydrase 1, sequence (P00915 whole entry): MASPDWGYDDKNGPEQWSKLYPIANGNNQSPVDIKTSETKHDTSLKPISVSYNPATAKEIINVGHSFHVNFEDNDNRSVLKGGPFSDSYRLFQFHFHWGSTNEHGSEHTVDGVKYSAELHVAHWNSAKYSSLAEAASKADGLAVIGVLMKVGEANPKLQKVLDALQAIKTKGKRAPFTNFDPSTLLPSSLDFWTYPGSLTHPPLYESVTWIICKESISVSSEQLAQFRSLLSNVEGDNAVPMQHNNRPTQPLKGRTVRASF

Take `O=C(COc1ccccc1)Nc1ccc2oc(=O)ccc2c1`: the Activity in the data set on CCRF-CEM turned out to be 61%.

Regarding `Cc1cc(=O)oc2cc(OCc3cn(CCCCCCCCCCOc4ccc5ccc(=O)oc5c4)nn3)ccc12`, the Ki on Carbonic anhydrase 2 and on Carbonic anhydrase 1 was greater than 10 µM throughout.

As for `CCN(CC)c1ccc2cc(-c3nc4ccccc4o3)c(=N)oc2c1`, the IC50 in the data set with A-427, in the data set with LCLC-103H cell line and with RT-4 was less than 0.01 µM throughout.

Regarding `COc1cc(C)c2oc(=O)c(C)c3c2c1[C@@H](C)CO3`, the half-maximal inhibitory concentration (IC50) in the data set with HCT-116 [1] turned out to be 0.0051 µM; in the data set with MCF7 [2], 0.74 µM; in the data set on HCT-116 [3] it was 0.74 µM; with HeLa [4], 0.74 µM; in the data set with HepG2 [5], 0.74 µM; with Caco-2 [6], 0.13 µM.

As to `CC(C)=CC[C@@H](OCCc1ccc(C(=O)/N=C/c2c(Cl)c3ccccc3oc2=O)cc1)C1=CC(=O)c2c(O)ccc(O)c2C1=O`, it took 3.25 µM to reach half-maximal inhibition with HeLa [7] (IC50).

Regarding `O=C(CCCCCNC(=O)c1cc(C(=O)NCCCCCC(=O)Nc2ccc(-c3c(-c4ccc(OCCN5CCCCC5)cc4)c4ccc(OCCN5CCCCC5)cc4oc3=O)cc2)cc(C(=O)NCCCCCC(=O)Nc2ccc(-c3c(-c4ccc(OCCN5CCCCC5)cc4)c4ccc(OCCN5CCCCC5)cc4oc3=O)cc2)c1)Nc1ccc(-c2c(-c3ccc(OCCN4CCCCC4)cc3)c3ccc(OCCN4CCCCC4)cc3oc2=O)cc1`, the IC50 (in data set [8]; in the data set with EL4; in the data set on T-cell) was 10 µM throughout.

As for `COc1ccc2c3c(c(=O)oc2c1)CC(C(C)(O)CC/C=C(\C)CCC=C(C)C)O3` (stereo unspecified), the values for the half-maximal inhibitory concentration (IC50) on Tubulin, in the data set with MDA-MB-231 [9] and in the data set with MCF7 [10] were 9.2 µM, 15.6 µM and 19.8 µM, respectively.

In the data set on HeLa [11], `Cc1c(C(C)C)c(=O)oc2cc(O)cc(O)c12` yielded an IC50 of 8 µM.

For the compound `C/C(=N\Cc1ccc(O)cc1)c1c(O)c2ccccc2oc1=O`, the half-inhibitory concentration (IC50) was 6.09 mg/L (≈ 19.7 µM) in the data set on A549, 4.08 mg/L (≈ 13.2 µM) in [12] and 1.41 mg/L (≈ 4.56 µM) in the data set with MCF7 [13].

As for `CCS(=O)(=O)Nc1ccc(Oc2ccccc2OC)c(-c2ccc3oc(=O)cc(OC)c3c2)c1`, in [14], half-maximal inhibition (IC50) was put at 0.099 µM.

As for `C=CC(C)(C)c1cc2c(O)c3c(c(C(C)(C)C=C)c2oc1=O)OC(C)(C)C=C3` [CLAUSARIN], the IC50 is 7.6 µM in the data set with HepG2 [15], 44.6 µM in the data set with HCT-116 [19] and 6.9 µM in the data set on SK-LU-1. Besides, the Activity is given as 1.6% in the data set on HepG2 [16]; 64.2% with HepG2 [17]; 49.7% with HepG2 [20]; 27.4% in the data set on HepG2 [21]; 2.7% in the data set with HepG2 [22]; 6.8% in the data set with HepG2 [23]. Further, 78.2 µM corresponded to half-maximal inhibition in [18] (IC50 at 2 days).

Compound `COc1ccc2ccc(=O)oc2c1CC=C(C)C` [OSTHOLE] came in with an inhibition at 100 µM in the data set with MDA-MB-231 [24] of 97.6%.

In the case of `CC(=O)O[C@H]1C(=O)[C@@]2(C)[C@H]([C@H](OC(=O)c3ccccc3)[C@]3(O)C[C@H](OC(=O)[C@H](O)[C@@H](NC(=O)c4ccccc4)c4ccccc4)C(C)=C1C3(C)C)[C@]1(OC(C)=O)CO[C@@H]1C[C@@H]2O` [PACLITAXEL], the IC50 with HCT-116 [3] came to 0.0279 µM; in the data set on Caco-2 [25], 2.1 µM.

Consider `CNC(=O)c1cc(Oc2ccc(NC(=O)Nc3ccc(Cl)c(C(F)(F)F)c3)cc2)ccn1` [SORAFENIB], for which the Activity in [26] was 25%; in [27], 1%.

In the case of `O=c1ccc2ccc(O)cc2o1` [UMBELLIFERONE], the IC50 in the data set with KB is 200 µM. Besides, the Activity in the data set on T98G worked out at 15%.
